From ChEMBL document CHEMBL1143501, “Structure-activity relationship of the novel bivalent and C-terminal modified analogues of endomorphin-2” (Bioorg Med Chem Lett, 2005)
Starred links: 1 amine or outer side, 2 acyl side, 3 side chain; linkers in the order of their positions; H or OH if unused. Positions of bridges follow the written chain, without caps; N, C: chain ends. Residues, ends and D or L forms follow the SMILES beside them. Chains are numbered I, II in the order given. Ethylenediamine = C(CN[*:2])N[*:1]

Columns and labels:
[1] = biological target: Delta-type opioid receptor (Mus musculus, UniProt P32300); experiment: In vitro inhibitory concentration against Opioid receptor delta 1 was measured using mouse vas deferens assay
Chain of Delta-type opioid receptor (P32300 whole entry): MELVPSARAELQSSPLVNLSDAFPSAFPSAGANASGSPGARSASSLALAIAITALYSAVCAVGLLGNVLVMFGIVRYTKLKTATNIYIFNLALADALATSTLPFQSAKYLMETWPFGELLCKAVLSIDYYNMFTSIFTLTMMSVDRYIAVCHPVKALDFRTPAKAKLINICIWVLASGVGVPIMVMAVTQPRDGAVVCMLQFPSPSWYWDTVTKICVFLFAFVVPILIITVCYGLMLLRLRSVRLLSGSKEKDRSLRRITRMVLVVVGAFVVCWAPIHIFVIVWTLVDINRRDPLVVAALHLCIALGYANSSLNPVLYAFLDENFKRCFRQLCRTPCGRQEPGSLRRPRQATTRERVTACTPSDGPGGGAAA

Mu-type opioid receptor = Mu-type opioid receptor (Cavia porcellus, UniProt P97266); experiment: In vitro inhibitory concentration against Opioid receptor mu 1 was measured using guinea pig ileum assay; assay type: tissue-based
Chain of Mu-type opioid receptor (P97266 whole entry): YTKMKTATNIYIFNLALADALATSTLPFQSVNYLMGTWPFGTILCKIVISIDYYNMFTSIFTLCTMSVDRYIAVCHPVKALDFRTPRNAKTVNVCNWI

[2] = biological target: Delta-type opioid receptor (Mus musculus) (UniProt P32300); experiment: Ratio of IC50s against Opioid receptor delta 1 was measured in mouse vas deferens to that of guinea pig ileum; assay type: tissue-based
Chain of Delta-type opioid receptor (Mus musculus) (P32300 whole entry): as the sequence (P32300 whole entry) above

[3] = Mean value of binding constant for Opioid receptors assayed with [3H]DAMGO
[4] = Mean value of binding constant for Opioid receptors assayed with [3H]DPDPE
[5] = biological target: Mu-type opioid receptor (Cavia porcellus) (UniProt P97266); experiment: Relative potency of EM-2 measured towards Opioid receptor mu 1 assayed with [3H]DAMGO
Chain of Mu-type opioid receptor (Cavia porcellus) (P97266 whole entry): as the sequence (P97266 whole entry) above

[6] = biological target: Mu-type opioid receptor (Cavia porcellus) (UniProt P97266); experiment: In vitro potency of EM-2 was measured towards Opioid receptor mu 1 using guinea pig ileum assay; assay type: tissue-based
[7] = biological target: Delta-type opioid receptor (Mus musculus) (UniProt P32300); experiment: In vitro potency of EM-2 measured towards Opioid receptor delta 1 using mouse vas deferens assay; assay type: functional, tissue-based
[8] = Selectivity for Opioid receptor mu 1 to that of Opioid receptor delta 1
[9] = biological target: Delta-type opioid receptor (Mus musculus) (UniProt P32300); experiment: Relative potency of EM-2 measured towards Opioid receptor delta 1 assayed with [3H]DPDPE

Molecule: NNC(=O)[C@H](Cc1ccccc1)NC(=O)[C@H](Cc1ccccc1)NC(=O)[C@@H]1CCCN1C(=O)[C@@H](N)Cc1ccc(O)cc1
- IC50 [1]: 185 nM
- IC50 (Mu-type opioid receptor): 132 nM
- Ratio [2]: 1.4
- Ki [3]: 9.35 nM
- Ki [4]: > 10000 nM
- Relative potency [5]: 0.88
- Relative potency [6]: 0.11
- Relative potency [7]: 0.26
- Selectivity [8]: > 1070

Molecule: H-YPFYPF-NH2
- Ratio [2]: 2.82
- Relative potency [5]: 0.27
- Relative potency [9]: 4.41
- Relative potency [6]: 0.013
- Relative potency [7]: 0.015
- Selectivity [8]: 61.8

Molecule: N[C@@H](Cc1ccc(O)cc1)C(=O)N1CCC[C@H]1C(=O)N[C@@H](Cc1ccccc1)C(=O)N[C@@H](Cc1ccccc1)C(=O)NCCNC(=O)[C@H](Cc1ccccc1)NC(=O)[C@H](Cc1ccccc1)NC(=O)[C@@H]1CCCN1C(=O)[C@@H](N)Cc1ccc(O)cc1
- IC50 [1]: 29 nM
- IC50 (Mu-type opioid receptor): 3540 nM
- Ki [3]: 86.3 nM
- Ki [4]: 613 nM

Molecule: N[C@@H](Cc1ccc(O)cc1)C(=O)N1CCC[C@H]1C(=O)N[C@@H](Cc1ccccc1)C(=O)NNC(=O)[C@H](Cc1ccccc1)NC(=O)[C@@H]1CCCN1C(=O)[C@@H](N)Cc1ccc(O)cc1
- IC50 [1]: 3200 nM
- IC50 (Mu-type opioid receptor): 1140 nM
- Ki [3]: 30.7 nM
- Ki [4]: 1900 nM

Molecule: N[C@@H](Cc1ccc(O)cc1)C(=O)N1CCC[C@H]1C(=O)N[C@@H](Cc1ccccc1)C(=O)NCCNC(=O)[C@H](Cc1ccccc1)NC(=O)[C@@H]1CCCN1C(=O)[C@@H](N)Cc1ccc(O)cc1 (I: H-Tyr-Pro-Phe / II: H-Tyr-Pro-Phe; linker I:C-II:C via Ethylenediamine)
- IC50 [1]: 1010 nM
- IC50 (Mu-type opioid receptor): 218 nM
- Ki [3]: 26.1 nM
- Ki [4]: 923 nM

Molecule: NC(=O)[C@H](Cc1ccccc1)NC(=O)[C@@H]1CCCN1C(=O)[C@@H](N)Cc1ccc(O)cc1 (H-Tyr-Pro-Phe-NH2)
- Ki [3]: 140 nM
- Ki [4]: > 10000 nM
- Relative potency [5]: 0.059
- Selectivity [8]: > 71.4

Molecule: COC(=O)[C@H](Cc1ccccc1)NC(=O)[C@H](Cc1ccccc1)NC(=O)[C@@H]1CCCN1C(=O)[C@@H](N)Cc1ccc(O)cc1
- IC50 [1]: 37.2 nM
- IC50 (Mu-type opioid receptor): 42.1 nM
- Ratio [2]: 0.88
- Ki [3]: 9.07 nM
- Ki [4]: > 10000 nM
- Relative potency [5]: 0.91
- Relative potency [6]: 0.35
- Relative potency [7]: 1.3
- Selectivity [8]: > 1110

Molecule: N[C@@H](Cc1ccc(O)cc1)C(=O)N1CCC[C@H]1C(=O)N[C@@H](Cc1ccccc1)C(=O)N[C@@H](Cc1ccccc1)C(=O)NNC(=O)[C@H](Cc1ccccc1)NC(=O)[C@H](Cc1ccccc1)NC(=O)[C@@H]1CCCN1C(=O)[C@@H](N)Cc1ccc(O)cc1
- IC50 [1]: 721 nM
- IC50 (Mu-type opioid receptor): 518 nM
- Ki [3]: 96.4 nM
- Ki [4]: 539 nM

Molecule: NC(=O)[C@H](Cc1ccccc1)NC(=O)[C@@H]1CCCN1C(=O)[C@H](Cc1ccc(O)cc1)NCCC(=O)[C@H](Cc1ccccc1)NC(=O)[C@@H]1CCCN1C(=O)[C@@H](N)Cc1ccc(O)cc1
- Ratio [2]: 4.64
- Relative potency [5]: 0.32
- Relative potency [9]: 9.06
- Relative potency [6]: 0.067
- Relative potency [7]: 0.048
- Selectivity [8]: 35.4

Molecule: N[C@@H](Cc1ccc(O)cc1)C(=O)N1CCC[C@H]1C(=O)N[C@@H](Cc1ccccc1)C(=O)N[C@@H](Cc1ccccc1)C(=O)NCCCCNC(=O)[C@H](Cc1ccccc1)NC(=O)[C@H](Cc1ccccc1)NC(=O)[C@@H]1CCCN1C(=O)[C@@H](N)Cc1ccc(O)cc1
- IC50 [1]: > 10000 nM
- Ki [3]: 168 nM
- Ki [4]: 7020 nM
